Source: ChEMBL document CHEMBL5137024, “Discovery of novel coumarin-indole derivatives as tubulin polymerization inhibitors with potent anti-gastric cancer activities” (Eur J Med Chem, 2022)
Activity calls are given as the source filed them. The rule behind the calls is not given here.

Columns and labels:
Mus musculus = test: Downregulation of p38 phosphorylation in tumor tissue of BALB/c nude mouse xenografted with human MGC-803 cells at 15 to 30 mg/kg, ip administered once daily for 21 days by Western blotting analysis; type: functional, organism-based; settings: dose 15-30 mg/kg, time 21.0 day
SGC-7901 = test: Antiproliferative activity against human SGC-7901 cells assessed as reduction in cell viability incubated for 48 hrs by MTT assay; type: functional, cell-based; settings: SGC-7901, 48 h
MGC-803 [1] = test: Inhibition of colony formation in human MGC-803 cells incubated for 7 days by crystal violet staining based analysis; type: functional, cell-based; settings: dose 2-10 nM, time 7.0 day, DDE = dose-dependent effect
MGC-803 [2] = test: Inhibition of ERK signalling pathway in human MGC-803 cells assessed as reduction in downstream substrate p90RSK phosphorylation at 5 to 15 nM incubated for 48 hrs; type: cell-based; settings: dose 5-15 nM
MGC-803 [3] = test: Induction of DNA damage in human MGC-803 cells by comet assay; type: functional, cell-based; settings: dose 5-15 nM, DDE = dose-dependent effect
[4] = Toxicity in BALB/c nude mouse xenografted with human MGC-803 cells assessed as pathological changes in spleen at 15 to 30 mg/kg, ip administered once daily for 21 days by Hematoxyin-eosin staining based analysis; type: organism-based; settings: in vivo, 504 h, dose 15-30 mg/kg, time 21 day
MGC-803 [5] = test: Inhibition of ERK signalling pathway in human MGC-803 cells assessed as downregulation of MEK1/2 phosphorylation at 5 to 15 nM incubated for 48 hrs; type: cell-based; settings: dose 5-15 nM
HGC-27 [6] = test: Antiproliferative activity against human HGC-27 cells assessed as reduction in cell viability incubated for 12 to 48 hrs by MTT assay; type: functional, cell-based; settings: dose 15-30 nM, time 12-48 hrs, DDE = dose-dependent effect
MGC-803 [7] = test: Downregulation of Wee1 expression in human MGC-803 cells at 5 to 15 nM incubated for 48 hrs; type: functional, cell-based; settings: dose 5-15 nM
HGC-27 [8] = test: Induction of apoptosis in human HGC-27 cells assessed as decrease in XIAP level; type: functional, cell-based; settings: dose 10-30 nM, DDE = dose-dependent effect
MGC-803 [9] = test: Induction of apoptosis in human MGC-803 cells assessed as nuclear fragmentation at 5 to 15 nM incubated for 48 hrs by DAPI staining based analysis; type: functional, cell-based; settings: dose 5-15 nM
MGC-803 [10] = test: Inhibition of ERK signalling pathway in human MGC-803 cells assessed as reduction in downstream substrate MSK1 phosphorylation at 5 to 15 nM incubated for 48 hrs; type: cell-based; settings: dose 5-15 nM
[11] = Cytotoxicity against human GES1 cells assessed as reduction in cell viability incubated for 48 hrs by MTT assay; type: toxicity, cell-based
HGC-27 [12] = test: Induction of apoptosis in human HGC-27 cells assessed as decrease in Mcl-1 level; type: functional, cell-based; settings: dose 10-30 nM, DDE = dose-dependent effect
MGC-803 [13] = test: Inhibition of p38 signalling pathway in human MGC-803 cells assessed as reduction in downstream substrate HSP-27 phosphorylation at 5 to 15 nM incubated for 48 hrs; type: cell-based; settings: dose 5-15 nM
[14] = Induction of mitochondria mediated intrinsic apoptosis in human MGC-803 cells assessed as early apoptotic cells at 5 nM measured after 48 hrs by flow cytometry analysis (Rvb= 1.6%); type: functional
[15] = Induction of mitochondria mediated intrinsic apoptosis in human MGC-803 cells assessed as late apoptotic cells at 5 nM measured after 48 hrs by flow cytometry analysis (Rvb= […]); type: functional
MGC-803 [16] = test: Antitumor activity against human MGC-803 cells xenografted BALB/c nude mouse assessed as tumor growth inhibition at 15 mg/kg, ip administered once daily for 21 days; type: functional; settings: MGC-803, 504 h, time 21 day, read-out: TGI
HGC-27 [17] = test: Induction of apoptosis in human HGC-27 cells assessed as upregulation of DR5 level; type: functional, cell-based; settings: dose 10-30 nM, DDE = dose-dependent effect
MGC-803 [18] = test: Induction of apoptosis in human MGC-803 cells assessed as upregulation of cleavage caspase 8 level; type: functional, cell-based; settings: dose 5-15 nM, DDE = dose-dependent effect
NCI-H520 = test: Antiproliferative activity against human NCI-H520 cells assessed as reduction in cell viability incubated for 48 hrs by MTT assay; type: functional, cell-based; settings: NCI-H520, 48 h
ECa-109 cell line = test: Antiproliferative activity against human EC109 cells assessed as reduction in cell viability incubated for 48 hrs by MTT assay; type: functional, cell-based; settings: ECa-109, 48 h
MGC-803 [19] = test: Downregulation of phosphorylated Elk-1 expression in human MGC-803 cells incubated for 48 hrs; type: functional, cell-based; settings: dose 5-15 nM, DDE = dose-dependent effect
HGC-27 [20] = test: Downregulation of MMP-9 expression in human HGC-27 cells incubated for 48 hrs; type: functional, cell-based; settings: dose 10-30 nM, DDE = dose-dependent effect
HGC-27 [21] = test: Inhibition of cell migration in human HGC-27 cells assessed as reduction in wound healing rate at 10 to 30 nM incubated for 24 hrs; type: functional, cell-based; settings: dose 10-30 nM
[22] = biological target: T1, c-Jun N-terminal kinase, JNK (Homo sapiens) (UniProt P45983+P53779+P45984); test: Inhibition of JNK signalling pathway in human HGC-27 cells assessed as reduction in JNK phosphorylation at 10 to 30 nM incubated for 48 hrs; type: cell-based; settings: dose 10-30 nM
[23] = biological target: Tubulin beta (Homo sapiens) (UniProt P68371+Q9H4B7+Q13509+P04350+Q3ZCM7+P07437+Q13885+Q9BVA1+Q9BUF5+A6NNZ2); test: Binding affinity to beta-tubulin colchicine binding site in human MGC-803 cells assessed as decrease in beta-tubulin adduct band incubated for 2 hrs by EBI alkylate competition assay; type: cell-based; settings: dose 0.075-0.75 µM, DDE = dose-dependent effect
MGC-803 [24] = test: Downregulation of ATF4 expression in human MGC-803 cells incubated for 48 hrs; type: functional, cell-based; settings: dose 5-15 nM, DDE = dose-dependent effect
Tubulin (Homo sapiens) = Tubulin (Homo sapiens) (UniProt P68371+Q9H4B7+P0DPH7+P68366+Q13509+Q71U36+P04350+Q3ZCM7+P07437+P68363+Q9BQE3+Q6PEY2+Q13885+Q9BVA1+Q9BUF5); test: Disruption of microtubule network in human HGC-27 cells assessed as cytoskeleton disruption at 10 to 30 nM measured after 48 hrs by DAPI staining based fluorescence microscopic analysis; type: cell-based; settings: dose 10-30 nM
HGC-27 [25] = test: Antiinvasive activity against human HGC-27 cells assessed as reduction in number of cells in membrane incubated for 48 hrs by trans well assay; type: functional, cell-based; settings: dose 10-30 nM, DDE = dose-dependent effect
HGC-27 [26] = test: Induction of apoptosis in human HGC-27 cells assessed as decrease in cIAP-1 level; type: functional, cell-based; settings: dose 10-30 nM, DDE = dose-dependent effect
HGC-27 [27] = test: Downregulation of phosphorylated ATF-2 expression in human HGC-27 cells incubated for 48 hrs; type: functional, cell-based; settings: dose 10-30 nM, DDE = dose-dependent effect
[28] = Induction of mitochondria mediated intrinsic apoptosis in human MGC-803 cells assessed as late apoptotic cells at 10 nM measured after 48 hrs by flow cytometry analysis (Rvb= 98.2%); type: functional
MCF7 = test: Antiproliferative activity against human MCF7 cells assessed as reduction in cell viability incubated for 48 hrs by MTT assay; type: functional, cell-based; settings: MCF7, 48 h
HCT-116 = test: cells; settings: Homo sapiens, HCT-116, 48 h
[29] = biological target: T1, c-Jun N-terminal kinase, JNK (Homo sapiens); test: Inhibition of JNK signalling pathway in human MGC-803 cells assessed as reduction in JNK phosphorylation at 5 to 15 nM incubated for 48 hrs; type: cell-based; settings: dose 5-15 nM
MGC-803 [30] = test: Antiinvasive activity against human MGC-803 cells assessed as reduction in number of cells in membrane incubated for 48 hrs by trans well assay; type: functional, cell-based; settings: dose 5-15 nM, DDE = dose-dependent effect

**Q.** Which Activity (Mus musculus) does the source give for CN(c1ccc2c(ccn2C)c1)c1cc(=O)oc2ccccc12 here?
**A.** Active

**Q.** What about the IC50 (SGC-7901) of the same molecule?
**A.** 0.0523 µM

**Q.** And the inhibition (MGC-803 [1])?
**A.** Dde

**Q.** And the inhibition (MGC-803 [2])?
**A.** Active

**Q.** What about the Activity (MGC-803 [3]) of the same molecule?
**A.** Dde

**Q.** What about the Activity [4] of the same molecule?
**A.** Non-Toxic

**Q.** And the inhibition (MGC-803 [5])?
**A.** Active

**Q.** And the Activity (HGC-27 [6])?
**A.** Dde

**Q.** And the Activity (MGC-803 [7])?
**A.** Active

**Q.** What about the Activity (HGC-27 [8]) of the same molecule?
**A.** Dde

**Q.** What about the Activity (MGC-803 [9]) of the same molecule?
**A.** Active

**Q.** And the inhibition (MGC-803 [10])?
**A.** Active

**Q.** And the IC50 at 48 h [11]?
**A.** 3.17 µM

**Q.** What about the Activity (HGC-27 [12]) of the same molecule?
**A.** Dde

**Q.** And the inhibition (MGC-803 [13])?
**A.** Active

**Q.** And the Activity [14]?
**A.** 1.8%

**Q.** What about the Activity [15] of the same molecule?
**A.** 98.1%

**Q.** What about the inhibition in vivo at 15 mg/kg (MGC-803 [16]) of the same molecule?
**A.** 70%

**Q.** What about the Activity (HGC-27 [17]) of the same molecule?
**A.** Dde

**Q.** What about the Activity (MGC-803 [18]) of the same molecule?
**A.** Dde

**Q.** What about the IC50 (NCI-H520) of the same molecule?
**A.** 0.0334 µM

**Q.** What about the IC50 (ECa-109 cell line) of the same molecule?
**A.** 0.0338 µM

**Q.** What about the Activity (MGC-803 [19]) of the same molecule?
**A.** Dde

**Q.** And the Activity (HGC-27 [20])?
**A.** Dde

**Q.** What about the inhibition (HGC-27 [21]) of the same molecule?
**A.** Active

**Q.** And the inhibition [22]?
**A.** Active

**Q.** What about the Activity [23] of the same molecule?
**A.** Dde

**Q.** And the Activity (MGC-803 [24])?
**A.** Dde

**Q.** And the Activity (Tubulin (Homo sapiens))?
**A.** Active

**Q.** And the Activity (HGC-27 [25])?
**A.** Dde

**Q.** What about the Activity (HGC-27 [26]) of the same molecule?
**A.** Dde

**Q.** And the Activity (HGC-27 [27])?
**A.** Dde

**Q.** And the Activity [28]?
**A.** 92.5%

**Q.** And the IC50 (MCF7)?
**A.** 0.435 µM

**Q.** And the IC50 (HCT-116)?
**A.** 0.033 µM

**Q.** And the inhibition [29]?
**A.** Active

**Q.** And the Activity (MGC-803 [30])?
**A.** Dde
